Each compound was assayed against JNK3 (Homo sapiens, UniProt P53779) (assay: JNK3 SPA assay (phosphorylation of GST-c-Jun)). Conditions: 3.33 μM ATP, GST-c-Jun substrate, read-out: IC50 against JNK3.
Type: biochemical
Description: JNK1, JNK2, JNK3—SPA Assay
JNK1, JNK2, JNK3—SPA Assay • 1. Compound is dissolved in DMSO to a convenient concentration and this is diluted in 10% DMSO to a five times concentrate of the desired starting concentration (frequently 1:100). • 2. 10 μl of 500 mM EDTA is added to alternative wells of the Opti-plate row, which will receive kinase reaction plus DMSO. This creates the negative control. • 3. For the JNK2 and JNK3 assay, compounds are prepared in six 2-fold dilutions with water and each concentration is tested in duplicate. For the JNK1 assay compounds are prepared in four 5-fold dilutions with water which are tested in triplicate. Controls are treated identically. • 4. 20 μl per well of each compound concentration is transferred to an Opti-plate, in duplicate. • 5. 30 μl (JNK2/3 SPA) or 50 μl (JNK1 SPA) of substrate solution (25 mM HEPES pH 7.5, 10 mM magnesium acetate with 3.33 μM ATP (JNK2/3) or 2 μM ATP (JNK1), approximately 7.5 kBq [γ-^33P] ATP, GST-c-Jun, in water) is added to each well. • 6. 50 μl (JNK2/3 SPA) or 30 μl (JNK1 SPA) of kinase solution (JNK in 25 mM HEPES pH 7.5, 10 mM Mg Acetate) is added to each well.
• 7. The plate is incubated for 30 minutes at room temperature. • 8. 100 μl of bead/stop solution is added to each well (5 mg/ml glutathione-PVT-SPA beads, 40 mM ATP in PBS). • 9. Plates are sealed and incubated for 30 minutes at room temperature, centrifuged for 10 minutes at 2500 g and counted. • 10. The IC50 values are calculated as the concentration of the compound being tested at which the phosphorylation of c-Jun is decreased to 50% of the control value.

Sequence of JNK3 (P53779 whole entry, species assumed): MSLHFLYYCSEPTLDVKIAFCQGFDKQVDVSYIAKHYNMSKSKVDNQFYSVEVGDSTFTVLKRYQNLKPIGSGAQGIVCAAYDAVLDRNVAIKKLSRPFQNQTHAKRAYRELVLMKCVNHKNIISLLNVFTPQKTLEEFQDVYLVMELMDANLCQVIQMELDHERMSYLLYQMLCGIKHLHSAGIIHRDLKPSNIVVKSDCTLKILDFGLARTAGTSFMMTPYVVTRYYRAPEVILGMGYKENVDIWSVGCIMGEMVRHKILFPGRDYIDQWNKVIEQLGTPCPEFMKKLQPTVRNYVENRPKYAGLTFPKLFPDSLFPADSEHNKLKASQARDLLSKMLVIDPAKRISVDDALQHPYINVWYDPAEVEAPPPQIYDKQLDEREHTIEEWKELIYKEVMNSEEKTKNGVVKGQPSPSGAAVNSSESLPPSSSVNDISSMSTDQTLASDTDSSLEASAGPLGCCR

Compound | IC50 [nM]
c1csc(-c2c[nH]c3ncc([C@H]4CC[C@H](N5CCCOCC5)CC4)cc23)n1 [Compound I-119, 4-((1r,4r)-4-(3-(thiazol-2-yl)-1H-pyrrolo[2,3-b]pyridin-5-yl)cyclohexyl)-1,4-oxazepane] | 1050
O=C(c1nc(-c2c[nH]c3ncc([C@H]4CC[C@@H](N5CCOCC5)CC4)cc23)cs1)N1CCOCC1 [Compound I-31, morpholino(4-(5-((1s,4s)-4-morpholinocyclohexyl)-1H-pyrrolo[2,3-b]pyridin-3-yl)thiazol-2-yl)methanone] | 1330
FC(F)(F)c1csc(-c2c[nH]c3ncc([C@H]4CC[C@H](N5CCOCC5)CC4)cc23)n1 [Compound I-69, 4-((1r,4r)-4-(3-(4-(trifluoromethyl)thiazol-2-yl)-1H-pyrrolo[2,3-b]pyridin-5-yl)cyclohexyl)morpholine] | 447
CN1CCN([C@H]2CC[C@H](c3cnc4[nH]cc(-c5csc(C6CCCN6C)n5)c4c3)CC2)CC1 (stereo partly shown) [Compound I-109, 4-(5-((1r,4r)-4-(4-methylpiperazin-1-yl)cyclohexyl)-1H-pyrrolo[2,3-b]pyridin-3-yl)-2-(1-methylpyrrolidin-2-yl)thiazole] | 1740
Cc1nc(-c2c[nH]c3ncc([C@H]4CC[C@@H](N5CCOCC5)CC4)cc23)cs1 [Compound I-56, 4-((1s,4s)-4-(3-(2-methylthiazol-4-yl)-1H-pyrrolo[2,3-b]pyridin-5-yl)cyclohexyl)morpholine] | > 2000
Cc1nc(-c2c[nH]c3ncc([C@H]4CC[C@H](N5CCCOCC5)CC4)cc23)sc1C [Compound I-123, 3-(4,5-dimethyl-1,3-thiazol-2-yl)-5-[trans-4-(1,4-oxazepan-4-yl)cyclohexyl]-1H-pyrrolo[2,3-b]pyridine] | 1070
CN1CCC(c2nc(-c3c[nH]c4ncc([C@H]5CC[C@H](N6CCCC6)CC5)cc34)cs2)CC1 [Compound I-98, 2-(1-methylpiperidin-4-yl)-4-(5-((1r,4r)-4-(pyrrolidin-1-yl)cyclohexyl)-1H-pyrrolo[2,3-b]pyridin-3-yl)thiazole] | 794
CN1CCCC1c1nc(-c2c[nH]c3ncc([C@H]4CC[C@H](N5CCCC5)CC4)cc23)cs1 (stereo partly shown) [Compound I-111, 2-(1-methylpyrrolidin-2-yl)-4-(5-((1r,4r)-4-(pyrrolidin-1-yl)cyclohexyl)-1H-pyrrolo[2,3-b]pyridin-3-yl)thiazole] | 1740
CN1CCC(c2nc(-c3c[nH]c4ncc(C5=CCC(N6CCOCC6)CC5)cc34)cs2)CC1 (stereo not shown) [Compound I-100, 4-(4-(3-(2-(1-methylpiperidin-4-yl)thiazol-4-yl)-1H-pyrrolo[2,3-b]pyridin-5-yl)cyclohex-3-enyl)morpholine] | 447
CN1CCCC1c1nc(-c2c[nH]c3ncc([C@H]4CC[C@H](N5CCOCC5)CC4)cc23)cs1 (stereo partly shown) [Compound I-107, 4-((1r,4r)-4-(3-(2-(1-methylpyrrolidin-2-yl)thiazol-4-yl)-1H-pyrrolo[2,3-b]pyridin-5-yl)cyclohexyl)morpholine] | 1260
Cc1nc(-c2c[nH]c3ncc(C4CCCCC4)cc23)cs1 [Compound I-58, 4-(5-cyclohexyl-1H-pyrrolo[2,3-b]pyridin-3-yl)-2-methylthiazole] | > 2000
CN1CCC(c2nc(-c3c[nH]c4ncc(C5=CCC(N6CCCOCC6)CC5)cc34)cs2)CC1 (stereo not shown) [Compound I-101, 4-(4-(3-(2-(1-methylpiperidin-4-yl)thiazol-4-yl)-1H-pyrrolo[2,3-b]pyridin-5-yl)cyclohex-3-enyl)-1,4-oxazepane] | 363
FC(F)(F)c1csc(-c2c[nH]c3ncc([C@H]4CC[C@H](N5CCCOCC5)CC4)cc23)n1 [Compound I-80, 4-((1r,4r)-4-(3-(4-(trifluoromethyl)thiazol-2-yl)-1H-pyrrolo[2,3-b]pyridin-5-yl)cyclohexyl)-1,4-oxazepane] | 513
c1nc(-c2c[nH]c3ncc([C@H]4CC[C@H](N5CCOCC5)CC4)cc23)cs1 [Compound I-59, 4-((1r,4r)-4-(3-(thiazol-4-yl)-1H-pyrrolo[2,3-b]pyridin-5-yl)cyclohexyl)morpholine] | 813
FC(F)(F)c1csc(-c2c[nH]c3ncc([C@H]4CC[C@@H](N5CCCC5)CC4)cc23)n1 [Compound I-85, 2-(5-((1s,4s)-4-(pyrrolidin-1-yl)cyclohexyl)-1H-pyrrolo[2,3-b]pyridin-3-yl)-4-(trifluoromethyl)thiazole] | 1820
Cc1nc(-c2c[nH]c3ncc([C@H]4CC[C@H](N5CCCC5)CC4)cc23)cs1 [Compound I-74, 2-methyl-4-(5-((1r,4r)-4-(pyrrolidin-1-yl)cyclohexyl)-1H-pyrrolo[2,3-b]pyridin-3-yl)thiazole] | 3310
CCOc1nc(-c2c[nH]c3ncc([C@H]4CC[C@H](N5CCCOCC5)CC4)cc23)cs1 [Compound I-125, 3-(2-ethoxy-1,3-thiazol-4-yl)-5-[trans-4-(1,4-oxazepan-4-yl)cyclohexyl]-1H-pyrrolo[2,3-b]pyridine] | 520
FC(F)(F)c1csc(-c2c[nH]c3ncc([C@H]4CC[C@H](N5CCCC5)CC4)cc23)n1 [Compound I-84, 2-(5-((1r,4r)-4-(pyrrolidin-1-yl)cyclohexyl)-1H-pyrrolo[2,3-b]pyridin-3-yl)-4-(trifluoromethyl)thiazole] | 692
CN1CCN([C@H]2CC[C@@H](c3cnc4[nH]cc(-c5nc(C(F)(F)F)cs5)c4c3)CC2)CC1 [Compound I-83, 2-(5-((1s,4s)-4-(4-methylpiperazin-1-yl)cyclohexyl)-1H-pyrrolo[2,3-b]pyridin-3-yl)-4-(trifluoromethyl)thiazole] | 603
FC(F)(F)c1csc(-c2c[nH]c3ncc([C@H]4CC[C@@H](N5CCOCC5)CC4)cc23)n1 [Compound I-70, 4-((1s,4s)-4-(3-(4-(trifluoromethyl)thiazol-2-yl)-1H-pyrrolo[2,3-b]pyridin-5-yl)cyclohexyl)morpholine] | 1100
CCC1CC=C(c2cnc3[nH]cc(-c4csc(C(=O)N5CCOCC5)n4)c3c2)CC1 (stereo not shown) [Compound I-27, {4-[5-(4-Ethyl-cyclohex-1-enyl)-1H-pyrrolo[2,3-b]pyridin-3-yl]-thiazol-2-yl}-morpholin-4-yl-methanone] | 447

Stronger by IC50, values ahead:

IC50 [nM] | Compound
240 | CN1CCC(c2nc(-c3c[nH]c4ncc(C5CCCCC5)cc34)cs2)CC1 [Compound I-11, 5-Cyclohexyl-3-[2-(1-methyl-piperidin-4-yl)-thiazol-4-yl]-1H-pyrrolo[2,3-b]pyridine]
147 | CN(C)C(=O)c1nc(-c2c[nH]c3ncc(C4CCCCC4)cc23)cs1 [Compound I-9, 4-[5-cyclohexyl-1H-pyrrolo[2,3-b]pyridin-3-yl]-thiazole-2-carboxylic acid dimethylamide]
86 | CN1CCN(C(=O)c2nc(-c3c[nH]c4ncc(C5=CCCC5)cc34)cs2)CC1 [Compound I-5, [4-(5-Cyclopent-1-enyl-1H-pyrrolo[2,3-b]pyridin-3-yl)-thiazol-2-yl]-(4-methyl-piperazin-1-yl)-methanone]
105 | CC1CC=C(c2cnc3[nH]cc(-c4csc(C(=O)N5CCN(C)CC5)n4)c3c2)CC1 (stereo not shown) [Compound I-14, {4-[5-(4-Methyl-cyclohex-1-enyl)-1H-pyrrolo[2,3-b]pyridin-3-yl]-thiazol-2-yl}-(4-methyl-piperazin-1-yl)-methanone]
117 | CC1CCC(c2cnc3[nH]cc(-c4csc(C(=O)N(C)C)n4)c3c2)CC1 (stereo not shown) [Compound I-19, 4-[5-(4-Methyl-cyclohexyl)-1H-pyrrolo[2,3-b]pyridin-3-yl]-thiazole-2-carboxylic acid dimethylamide]
302 | CCOc1nc(-c2c[nH]c3ncc([C@H]4CC[C@H](N5CCOCC5)CC4)cc23)cs1 [Compound I-63, 4-((1r,4r)-4-(3-(2-ethoxythiazol-4-yl)-1H-pyrrolo[2,3-b]pyridin-5-yl)cyclohexyl)morpholine]
295 | CN1CCC(c2csc(-c3c[nH]c4ncc([C@H]5CC[C@H](N6CCOCC6)CC5)cc34)n2)CC1 [Compound I-78, 4-((1r,4r)-4-(3-(4-(1-methylpiperidin-4-yl)thiazol-2-yl)-1H-pyrrolo[2,3-b]pyridin-5-yl)cyclohexyl)morpholine]
229 | C1=C(c2cnc3[nH]cc(-c4nccs4)c3c2)CCCC1 [Compound I-24, 2-(5-cyclohexenyl-1H-pyrrolo[2,3-b]pyridin-3-yl)thiazole]
138 | CC1CCC(c2cnc3[nH]cc(-c4csc(C(=O)N5CCCCC5)n4)c3c2)CC1 (stereo not shown) [Compound I-20, {4-[5-(4-Methyl-cyclohexyl)-1H-pyrrolo[2,3-b]pyridin-3-yl]-thiazol-2-yl}-piperidin-1-yl-methanone]
151 | CC1CC=C(c2cnc3[nH]cc(-c4csc(C(=O)N5CCOCC5)n4)c3c2)CC1 (stereo not shown) [Compound I-13, {4-[5-(4-Methyl-cyclohex-1-enyl)-1H-pyrrolo[2,3-b]pyridin-3-yl]-thiazol-2-yl}-morpholin-4-yl-methanone]

Source: US7951802B2, “Use of 7-azaindoles in the inhibition of c-Jun N-terminal kinase” (Eisai R&D Management Co., Ltd., priority 2007, dated 2011)
